Organism: Rattus norvegicus
Assay: DrugMatrix - Regimen: Daily Repeat
Assay type: toxicity, organism-based, Sprague-Dawley
Design: regimen Daily Repeat, gender Male, age 6-8 weeks
Details: in vivo, po, route oral GAVAGE, vehicle .5 % CMC; for ABSOLUTE BASOPHIL / ABSOLUTE EOSINOPHIL / ABSOLUTE LYMPHOCYTE / ABSOLUTE MONOCYTE / ABSOLUTE SEGMENTED NEUTROPHIL / BASOPHIL / EOSINOPHIL / ERYTHROCYTE COUNT / HEMATOCRIT / HEMOGLOBIN / LEUKOCYTE COUNT / LYMPHOCYTE / MEAN CORPUSCULAR HEMOGLOBIN / MEAN CORPUSCULAR HEMOGLOBIN CONCENTRATION / MEAN CORPUSCULAR VOLUME / MONOCYTE / NEUTROPHIL / NUCLEATED RED BLOOD CELLS / PLATELET COUNT: tissue Blood; for ALANINE AMINOTRANSFERASE / ALBUMIN / ALKALINE PHOSPHATASE / ASPARTATE AMINOTRANSFERASE / BLOOD UREA NITROGEN / CARBON DIOXIDE / CHLORIDE / CHOLESTEROL / CREATINE PHOSPHOKINASE / CREATININE / GLUCOSE / LACTATE DEHYDROGENASE / LIPASE / PHOSPHORUS / POTASSIUM / SODIUM / TOTAL BILIRUBIN / TOTAL PROTEIN / URIC ACID: tissue Plasma
[1] = 0 mg/kg, 72 h, dose level Control, time 3 day
[2] = 0 mg/kg, 120 h, dose level Control, time 5 day
[3] = 15 mg/kg, 72 h, dose level Low, time 3 day

Compound: CN1C(=O)CN=C(c2ccccc2)c2cc(Cl)ccc21 [DIAZEPAM]
- ABSOLUTE BASOPHIL [1]: 0 CELLS/uL
- ABSOLUTE EOSINOPHIL [1]: 0 CELLS/uL
- ABSOLUTE LYMPHOCYTE [1]: 12269.67 CELLS/uL
- ABSOLUTE MONOCYTE [1]: 160.33 CELLS/uL
- ABSOLUTE SEGMENTED NEUTROPHIL [1]: 970 CELLS/uL
- BASOPHIL [1]: 0%
- EOSINOPHIL [1]: 0%
- ERYTHROCYTE COUNT [1]: 5.76 x10E6/uL
- HEMATOCRIT [1]: 36.57%
- HEMOGLOBIN [1]: 14.22 G/DL
- LEUKOCYTE COUNT [1]: 13.4 x10E3/uL
- LYMPHOCYTE [1]: 91.67%
- MEAN CORPUSCULAR HEMOGLOBIN [1]: 24.67 pg
- MEAN CORPUSCULAR HEMOGLOBIN CONCENTRATION [1]: 38.85 G/DL
- MEAN CORPUSCULAR VOLUME [1]: 63.52 fL
- MONOCYTE [1]: 1.17%
- NEUTROPHIL [1]: 7.17%
- NUCLEATED RED BLOOD CELLS [1]: 0.33 /100WBC
- PLATELET COUNT [1]: 1250.83 x10E3/uL
- ALANINE AMINOTRANSFERASE [1]: 49.17 u/L
- ALBUMIN [1]: 4.33 G/DL
- ALKALINE PHOSPHATASE [1]: 378.5 u/L
- ASPARTATE AMINOTRANSFERASE [1]: 82.17 u/L
- BLOOD UREA NITROGEN [1]: 15 mg/dL
- CARBON DIOXIDE [1]: 34.33 mmol/L
- CHLORIDE [1]: 99.17 MEQ/L
- CHOLESTEROL [1]: 71.17 mg/dL
- CREATINE PHOSPHOKINASE [1]: 258.67 u/L
- CREATININE [1]: 0.18 mg/dL
- GLUCOSE [1]: 142.67 mg/dL
- LACTATE DEHYDROGENASE [1]: 154.33 u/L
- LIPASE [1]: 9 u/L
- PHOSPHORUS [1]: 11.67 mg/dL
- POTASSIUM [1]: 7.13 MEQ/L
- SODIUM [1]: 142.22 MEQ/L
- TOTAL BILIRUBIN [1]: 0.18 mg/dL
- TOTAL PROTEIN [1]: 5.77 G/DL
- URIC ACID [1]: 1.55 mg/dL
- ABSOLUTE BASOPHIL [2]: 0 CELLS/uL
- ABSOLUTE EOSINOPHIL [2]: 23.33 CELLS/uL
- ABSOLUTE LYMPHOCYTE [2]: 14943.67 CELLS/uL
- ABSOLUTE MONOCYTE [2]: 32 CELLS/uL
- ABSOLUTE SEGMENTED NEUTROPHIL [2]: 1084.33 CELLS/uL
- BASOPHIL [2]: 0%
- EOSINOPHIL [2]: 0.17%
- ERYTHROCYTE COUNT [2]: 5.71 x10E6/uL
- HEMATOCRIT [2]: 35.28%
- HEMOGLOBIN [2]: 14.27 G/DL
- LEUKOCYTE COUNT [2]: 16.08 x10E3/uL
- LYMPHOCYTE [2]: 93%
- MEAN CORPUSCULAR HEMOGLOBIN [2]: 25.02 pg
- MEAN CORPUSCULAR HEMOGLOBIN CONCENTRATION [2]: 40.43 G/DL
- MEAN CORPUSCULAR VOLUME [2]: 61.82 fL
- MONOCYTE [2]: 0.17%
- NEUTROPHIL [2]: 6.67%
- NUCLEATED RED BLOOD CELLS [2]: 0.33 /100WBC
- PLATELET COUNT [2]: 1274 x10E3/uL
- ALANINE AMINOTRANSFERASE [2]: 54.17 u/L
- ALBUMIN [2]: 4.22 G/DL
- ALKALINE PHOSPHATASE [2]: 373.17 u/L
- ASPARTATE AMINOTRANSFERASE [2]: 81.83 u/L
- BLOOD UREA NITROGEN [2]: 16.67 mg/dL
- CARBON DIOXIDE [2]: 30.33 mmol/L
- CHLORIDE [2]: 99 MEQ/L
- CHOLESTEROL [2]: 71 mg/dL
- CREATINE PHOSPHOKINASE [2]: 273.5 u/L
- CREATININE [2]: 0.22 mg/dL
- GLUCOSE [2]: 141.83 mg/dL
- LACTATE DEHYDROGENASE [2]: 153.67 u/L
- LIPASE [2]: 10.33 u/L
- PHOSPHORUS [2]: 11.38 mg/dL
- POTASSIUM [2]: 7.08 MEQ/L
- SODIUM [2]: 142.75 MEQ/L
- TOTAL BILIRUBIN [2]: 0.18 mg/dL
- TOTAL PROTEIN [2]: 6.1 G/DL
- URIC ACID [2]: 1.67 mg/dL
- ABSOLUTE BASOPHIL [3]: 0 CELLS/uL
- ABSOLUTE EOSINOPHIL [3]: 0 CELLS/uL
- ABSOLUTE LYMPHOCYTE [3]: 12631.33 CELLS/uL
- ABSOLUTE MONOCYTE [3]: 43.67 CELLS/uL
- ABSOLUTE SEGMENTED NEUTROPHIL [3]: 1191.67 CELLS/uL
- BASOPHIL [3]: 0%
- EOSINOPHIL [3]: 0%
- ERYTHROCYTE COUNT [3]: 5.07 x10E6/uL
- HEMATOCRIT [3]: 32.77%
- HEMOGLOBIN [3]: 13.23 G/DL
- LEUKOCYTE COUNT [3]: 13.87 x10E3/uL
- LYMPHOCYTE [3]: 91%
- MEAN CORPUSCULAR HEMOGLOBIN [3]: 26.23 pg
- MEAN CORPUSCULAR HEMOGLOBIN CONCENTRATION [3]: 40.4 G/DL
- MEAN CORPUSCULAR VOLUME [3]: 64.77 fL
- MONOCYTE [3]: 0.33%
- NEUTROPHIL [3]: 8.67%
- NUCLEATED RED BLOOD CELLS [3]: 0 /100WBC
- PLATELET COUNT [3]: 1275.67 x10E3/uL
- ALANINE AMINOTRANSFERASE [3]: 54 u/L
- ALBUMIN [3]: 4.07 G/DL
- ALKALINE PHOSPHATASE [3]: 332.67 u/L
- ASPARTATE AMINOTRANSFERASE [3]: 79.33 u/L
- BLOOD UREA NITROGEN [3]: 16.67 mg/dL
- CARBON DIOXIDE [3]: 27 mmol/L
- CHLORIDE [3]: 101.67 MEQ/L
- CHOLESTEROL [3]: 72.67 mg/dL
- CREATINE PHOSPHOKINASE [3]: 227.67 u/L
- CREATININE [3]: 0.25 mg/dL
- GLUCOSE [3]: 180 mg/dL
- LACTATE DEHYDROGENASE [3]: 173.33 u/L
- LIPASE [3]: 9 u/L
- PHOSPHORUS [3]: 13.13 mg/dL
- POTASSIUM [3]: 7.43 MEQ/L
- SODIUM [3]: 143.37 MEQ/L
- TOTAL BILIRUBIN [3]: 0.2 mg/dL
- TOTAL PROTEIN [3]: 5.57 G/DL
- URIC ACID [3]: 1.97 mg/dL
